Patent US7091185B2, “Periodic antimicrobial peptides” (Dow Global Technologies Inc., priority 2003, dated 2006)
Like-named read-outs stand apart in the source and are kept apart here. Where no end group is shown, it is not given here.

Columns and labels:
[1] = test system: P. aeruginosa ATCC 10145
Method: (§1) The bacteria tested were P. aeruginosa American Type Culture Collection Number (ATCC) 10145, E. coli ATCC 2592, and S. aureus (methicillin reseistant) ATTC 33591.
(§2) All experiments were compared to bacterial growth under optimal growth conditions (37° C., pH 7.0, absence of additional salt, growth media—referred to as standard growth conditions). In each plate, no growth control (media alone), positive growth control (bacteria with no test sample), positive antimicrobial controls (agents with known antimicrobial activity) and test compounds were tested.
(§3) The plates were incubated overnight, and the relative percent growth determined by optical density at 620 nm (OD620) using a […] […] PLUS™. […] All samples were tested in duplicate and each assay was repeated at least twice. […] IC50 and MIC are reported in μg/ml.

[2] = test system: E. coli ATCC 2592
Method: as §1, §2, §3

[3] = test system: S. aureus (methicillin resistant) ATCC 33591
Method: as §1, §2, §3

[4] = test system: Red blood cells (RBC); assay: Red blood cell toxicity; format: cell-based
[5] = Red blood cell toxicity; format: cell-based; conditions: red blood cells (RBC); RBCs; concentration required for 50% toxicity; read-out: TX50
[6] = test system: Staph. aureus ATCC 6538; assay: HMARQ biocidal kill activity; format: cell-based; conditions: Staph. aureus ATCC 6538 (gram+)
Method: (§4) Biocide efficacy protocols were improved by reducing sample size, organizing the test material into an array format, implementing most probable number (MPN) quantitation and using multi-channel liquid handling equipment. We call the new method “high-throughput microanalysis and rapid quantitation” or “HMARQ.” HMARQ is directly applicable to current industrial efficacy tests such as multi-cycle preservation challenge or time course disinfection tests.
(§5) HMARQ is performed in a high throughput plate, such as 96-well microtiter plates. Typical sample volumes have been reduced down to 200 to 300 μL, but can be reduced further if desired. In these samples, no more than 10% of the total volume will be composed of the biocide and organism solution, and all non-matrix additions are normalized for all samples.
(§6) The sample matrix is first inoculated with the desired concentration of microorganisms. Inoculated sample matrix is then added to the 96-well assay block containing the biocide(s) under study. Each sample block contains biocide treated samples and untreated control samples (lacking biocide). Once the samples are prepared, the entire block of samples is mixed by vortexing until each sample is homogenous. In general, the study starts once mixing is complete, and samples are removed as required for the analysis. When Kill Time testing (rate of biocide activity) is performed, the microorganisms are added after biocide addition to the samples, allowing for rapid mixing and analysis.
(§7) Bacterial concentration (CFU/mL) is determined using the most probable number method (MPN). The contaminated solution is serially diluted until the “no growth” endpoint is reached. The endpoint represents the MPN and is expressed in units of the bacterial concentration. A serial 1:10 dilution will yield a bacterial concentration resolution of 1 log and the log reduction is determined by comparing the concentration of organisms in a treated sample to the concentration of organisms in untreated samples. For example, if a sample requires four 1:10 dilutions before bacterial growth is lost then the MPN for bacterial concentration in the sample is less than or equal to 1×10^4 CFU/mL (1E4). […] This method of enumeration is generally applicable to all non-filamentous microorganisms.
(§8) Media included Tryptic Soy Broth (TSB) for bacteria and Sabouraud Dextrose Broth (SDB) for fungi. These are available commercially and prepared according to the manufacturers instructions. Indicator medium was TSB/R for bacteria and SDB/R for fungi. These were made by addition of 50 μM filter sterilized Resazurin to the sterilized and cooled medium. Tryptic Soy agar plates (TSA) and SDA slants were used to provide inoculant for bacterial and fungal cultures. The indicator dye appeared pink or white when bacterial growth was present.
(§9) Using the HMARQ test described above, periodic peptides were generated and tested for Kill Activity. In this experiment, a broader range of peptidezs were tested for activity. Units are expressed as ppm (μg/mL) needed for 3.5 log kill at 15 min or 24 hour and the results are shown below.

[7] = test system: P. aeruginosa ATCC 15442; assay: HMARQ biocidal kill activity; format: cell-based; conditions: P. aeruginosa ATCC 15442 (gram−)
Method: as §4, §5, §6, §7, §8, §9

[8] = test system: C. albicans 10231; format: cell-based
Method: (§10) The MIC and IC50 values were determined by a broth microdilution method according to guidelines of the National Committee for Clinical Laboratory Standard as follows: In 96-well tissue culture plates, a fixed volume of bacterial suspension in 2× broth (as defined below) was added to the mixtures or individual compounds dispensed at concentrations varying from 1,000 to 1 μg/ml derived from serial two-fold dilutions in sterile water. The bacteria tested were P. aeruginosa American Type Culture Collection Number (ATCC) 10145, E. coli ATCC 2592, and S. aureus (methicillin reseistant) ATTC 33591.
(§11) The plates were incubated overnight, and the relative percent growth determined by optical density at 620 nm (OD620) using a TITERTEK MULTISKAN PLUS™. […] IC50 values were calculated using a sigmoidal curve fitting software program (GRAPHPAD,™ ISI Software,™ San Diego, Calif.). All samples were tested in duplicate and each assay was repeated at least twice. In the following table, KFAK is the repeat unit and multimers of KFAK were tested. IC50 and MIC are reported in μg/ml.
(§12) Because the antibacterial activity of the periodic peptides was so promising, further experiments were performed to determine if the periodic peptides also had antifungal activity. The experimental design was similar to that above, with accommodation made for fungal growth requirements, including the use of Sabouraud Dextrose Broth (SDB) and Sabouraud Dextrose Agar (SDA) slants.

[9] = test system: Cr. Neoformans 32045; format: cell-based
Method: as §10, §11, §12

[10] = test system: HeLa cell line; assay: HeLa MTS cellular reduction toxicity assay; format: cell-based; conditions: for TX50: 24 h, MTS
Method: The RBC protocol was from Blondelle (2000) and is described generally as follows: The toxicity toward the HeLa cell line was determined using a MTS (3-(4-5-dimethylthiazol-2-yl)-5-(3carboxymethoxyphenyl)-2-(4-sulfophenyl)-2H-tetrazolium, sodium salt) cellular reduction assay. MTS (2 mg/mL) was prepared in Dulbecco PBS (pH 7.35), filtered, aliquoted and stored at minus 20° C. In 96 well flat bottomed plates, cell suspensions (250 μL of 6×10^4 cell/mL in each well) were incubated for 48 h at 37° C. (5% CO2 incubator). The peptides (50 μL) were then added to the cell monolayer (following aspiration of the media from each well and addition of 50 μL of Dulbecco's Modified Eagles Medium) at varying concentrations derived from serial 2-fold dilutions, and the plates incubated for 24 h at 37° C. (5% CO2 incubator). Proliferation was then determined by adding a solution of phenazine methosulfate (PMS: 0.92 mg/mL in DPBS) to MTS at a 1:20 ration just prior to the assay. Twenty microliters MTS-PMS solution were added to each well and the plates incubated for 1 h at 37° C. (5% CO2 incubator). The relative percent toxicity was determined by comparing the absorbance at 490 nm of each peptide to the absorbance of cells without peptide. The TX50 (concentration required for 50% toxicity) was calculated using a sigmoidal curve fitting software (Graphpad Prism).

[11] = Table 3, P aeruginosa 10145, gram−
[12] = S. aureus (methicillin resistant) 33591, gram+

Substance	IC50 ([1]; ATCC 10145) [µg/mL]	MIC ([1]; ATCC 10145) [µg/mL]	IC50 ([2]; ATCC 2592) [µg/mL]	MIC ([2]; ATCC 2592) [µg/mL]	IC50 ([3]; ATCC 33591) [µg/mL]	MIC ([3]; ATCC 33591) [µg/mL]	% kill at 250 μg/ml [4] [%]	HC50 at 24 h [5] [µg/mL]	ppm needed for 3.5 log kill at 15 min [6] [ppm]	ppm needed for 3.5 log kill at 24 hr [6] [ppm]	ppm needed for 3.5 log kill at 15 min [7] [ppm]	ppm needed for 3.5 log kill at 24 hr [7] [ppm]	IC50 [8]; 10231 [µg/mL]	MIC [8]; 10231 [µg/mL]	IC50 [9] [µg/mL]	MIC [9] [µg/mL]	% kill at 500 μg/ml [10] [%]	TX50 [10] [µg/mL]	also measured
RFARRFARRFARRFARRFARRFARRFARRFAR [RFAR (8), RFAR RFAR RFAR RFAR RFAR RFAR RFAR RFAR]	30	62	12	32 to 62	20	125 to 250	100	17	>500	125	>500	16	144	250 to 500	32	62 to 125	9.5	71	–
H-LKKLLKKLLKKLLKKLLKKLLKKLLKKL-OH [LKKL (7), LKKL LKKL LKKL LKKL LKKL LKKL LKKL]	96	125	41	62 to 125	252	>250	100	9	4	125	125	8	199	250 to 500	85	100 to 125	−0.4	25	–
LKKLLKKLLKKLLKKLLKKLLKKLLKKLLKKL [LKKL (8), LKKL LKKL LKKL LKKL LKKL LKKL LKKL LKKL]	61	125	37	62 to 125	80	>250	100	8	>500	125	4	8	179	250 to 500	56	62 to 125	0.1	23	–
H-LKLKLKLKLKLKLKLK-OH [LK (8), LK LK LK LK LK LK LK LK]	125	130	65	>125	56	125 to 250	13	> 500	31	4	8	16	162	250 to 500	9.7	32 to 63	43.5	122	–
KFFKKFFKKFFKKFFKKFFKKFFKKFFK [KFFK (7), KFFK KFFK KFFK KFFK KFFK KFFK KFFK]	–	–	–	–	–	–	–	12	4	63	16	8	–	–	–	–	−0.5	30	IC50 [1, 11]: 87 µg/mL; MIC [1, 11]: 125 µg/mL; IC50 ([2]; E. coli 2592, gram−): 63 µg/mL; MIC ([2]; E. coli 2592, gram−): >125 µg/mL; IC50 [3, 12]: 133 µg/mL; MIC [3, 12]: >250 µg/mL; % kill at 250 μg/ml ([4]; RBCs, 250 μg/ml): 100%; IC50 ([8]; yeast C. albicans 10231): 183 µg/mL; MIC ([8]; yeast C. albicans 10231): 250 to 500 µg/mL; IC50 ([9]; fungus Cr. Neoformans 32045): 55 µg/mL; MIC ([9]; fungus Cr. Neoformans 32045): 62 to 125 µg/mL
